The values that follow come from US9636348B2, “6-substituted estradiol derivatives for use in remyelination of nerve axons” (Endece LLC, priority 2011, dated 2017).

The test system of assay [1] is oligodendrocyte precursor cells (OPCs). The assay can be described thus: Oligodendrocyte differentiation assay (PLP-EGFP reporter). In kind it is cell-based, mouse. The following applies: for Potency in OPC differentiation (in words): 4 days, FIGS. 1 and 3. The procedure:
OPC cultures are prepared as described Pedraza, C. E. et al., Glia 56(12), 1339-52 (2008), incorporated herein by reference. Brains are removed from E14.5 C57Bl6/J (expressing PLP-EGFP) mice (Mallon, B. S. et al., J. Neurosci 22(3), 876-85 (2002)), cleaned and cortical hemispheres are isolated. Tissue is then triturated and seeded in T-25 cm^2 flasks at a density of 1 brain (2 cortical hemispheres) per flask. Neurospheres are passaged once after 3 days. Cells from passage 2 are used to prepare two 96-well plates for the primary screen. Following the initial 48 hour incubation in OPC media, the OPCs are treated with 10 μM of 17β-estradiol, compound 4 and compound 21, along with vehicle control DMSO and positive control compounds including […] ciliary neurotrophic factor (CNTF) and 1 μM extracellular-signal-regulated (ERK) kinase inhibitor (MEKi). Cells are treated for a total of 4 days and the media is replaced once at the 48 hour mark with fresh compounds. After the 4 day treatment the cells are fixed with 4% paraformaldehyde and stained with Hoechst 33342 to visualize nuclei. Cells are also stained with anti-GFAP (GFAP=glial fibrillary acidic protein) antibodies to identify astrocytes. Cells are blocked with 3% normal goat serum followed by an overnight incubation of anti-rabbit GFAP antibody (1:500). Cells are labeled with a 1:1000 concentration of secondary goat anti-rabbit Alexa 647 fluorochrome antibody. Images are acquired using the Cellomics Arrayscan VTI. Twenty fields at 10× magnification are acquired per well and the cells expressing EGFP (enhanced green gluorescent protein; mature oligodendrocytes) and GFAP (astrocytes) are evaluated by neuronal profiling algorithm.
The extent of oligodendrocyte maturation is measured by the level of the PLP-EGFP reporter signal, along with the extent of process formation (FIGS. 1-4; legend for FIGS. 1 and 3 are presented below in Table 2). Proteolipid protein (PLP) is used as a biomarker because it is known to be expressed in mature oligodendrocytes and is a component of the myelin sheath. […] Compared to DMSO and all other compounds tested, including CNTF, the extent of process formation is also greatest for compound 21 (FIGS. 2 and 4).

The subject of assay [2] is Delta/notch-like EFG repeat (DNER). Put plainly: Expression profiling (Agilent microarray) in tumor cell lines: DNER. In kind it is cell-based, human. The conditions noted are these: 24 hours, treated vs untreated, average of SKOV-3, A549 and Panc-1. The procedure: (§1) The study includes three human tumor cell lines: A549, Panc-1, and SK-OV-3. The lines are each grown in two flasks cultured to roughly 40% confluence. One of the flasks is treated by addition of compound to the culture media at a various concentrations, i.e. 10 μM, 20 μM 50 μM, 100 μM or 200 μM. The other, mock treated, flask is treated only with the vehicle used to solubilize and deliver the drug. RNA extracted from the pairs of treated and untreated samples is subjected to microarray analysis on Agilent Whole Human Genome Microarrays (G4112F). Each analysis reports the difference in abundance of messenger RNAs for each of the 41,000 specific mRNA detectors on the array. This direct comparison of the treated versus untreated samples for each cell line provides extremely sensitive detection of changes in mRNA abundance resulting from the drug treatment. As each cell line comparison is self-normalized, the results can be compared across the samples with high confidence.
(§2) Three human tumor cell lines, A549, Panc-1, and SK-OV-3, are each grown in two flasks cultured to roughly 40% confluence. One of the flasks is treated by addition of compound to the culture media at concentrations of 10 μM, 50 μM and 100 μM. The other, mock treated, flask is treated only with the vehicle used to solubilize and deliver the drug. All flasks are cultured for a further 24 hours, and then the cells are scraped free and washed in ice-cold PBS, then collected by centrifugation. The harvested cells are immediately frozen, and stored at −80° C. or colder.
(§3) Total RNA is prepared from the frozen tissue samples using Trizol-based cell lysis followed by 65° C. hot phenol extraction and RNeasy chromatography purification. The purified RNA samples are analyzed spectrophotometrically. The concentration of RNA is determined by measuring the absorbance at 260 nm (A260). Given an absorbance of 1 unit at 260 nm corresponds to […].
(§4) All RNAs are labeled using 1 microgram of RNA as input to an Agilent Low Input Labeling reaction.
(§5) Test RNA is labeled with Cy5 (650 nm emitter) and reference RNA is labeled with Cy3 (550 nm emitter) nucleotides. Labeling, hybridizations and subsequent washings are carried out on Agilent H1Av2 human expression chips. The resulting hybridized chips are scanned on an Agilent microarray scanner, and intensity information for each detector spot is extracted from the scanned image using Agilent feature extraction software. […]
(§6) After the ratios have been calculated for the normalized data, the various control and duplicate samples are analyzed to build a model of how reproducible the results are, and how this reproducibility is varies depending on signal strength and noise. […]

The subject of the next assay is Interleukin 28A (IL28A). The assay can be described thus: Expression profiling (Agilent microarray) in tumor cell lines: IL28A. The conditions noted are these: 24 hours, treated vs untreated, average of SKOV-3, A549 and Panc-1. In kind it is cell-based, human. On the procedure: as §1, §2, §3, §4, §5, §6
The test system of assay [3] is Oligodentrocyte lineage transcription factor 2 (OLIG2). The assay can be described thus: Expression profiling (Agilent microarray) in tumor cell lines: OLIG2. In kind it is cell-based, human. The conditions noted are these: 24 hours, treated vs untreated, average of SKOV-3, A549 and Panc-1. On the procedure: as §1, §2, §3, §4, §5, §6
For assay [4], the system named is Interleukin 23 receptor (IL23R). The assay can be described thus: Expression profiling (Agilent microarray) in tumor cell lines: IL23R. The class given is cell-based, human. The conditions noted are these: 24 hours, treated vs untreated, average of SKOV-3, A549 and Panc-1. The procedure: as §1, §2, §3, §4, §5, §6
Assay [5] relates to Transmembrane protein 108 (TMEM108). The assay can be described thus: Expression profiling (Agilent microarray) in tumor cell lines: TMEM108. The following applies: 24 hours, treated vs untreated, average of SKOV-3, A549 and Panc-1. In kind it is cell-based, human. On the procedure:
as §1, §2, §3, §4, §5, §6

The subject of assay [6] is Myelin oligodentrocyte glycoprotein (variant alpha 4) (MOG). The assay can be described thus: Expression profiling (Agilent microarray) in tumor cell lines: MOG. The class given is cell-based, human. The following applies: 24 hours, treated vs untreated, average of SKOV-3, A549 and Panc-1. On the procedure: as §1, §2, §3, §4, §5, §6
For assay [7], the system named is genes in signaling pathways involved in proliferation and differentiation of OPCs. Put plainly: Expression profiling in tumor cell lines: overall statement. In kind it is cell-based, human. The following applies: SKOV-3, A549 and Panc-1 cells, Table 1. The procedure: as §1
Three human tumor cell lines, A549, Panc-1, and SK-OV-3, are each grown in two flasks cultured to roughly 40% confluence. […]
as §6

For another assay, the system named is Connexin (AF251047). Put plainly: Expression profiling (Agilent microarray) in tumor cell lines: Connexin. The class given is cell-based, human. The conditions noted are these: 24 hours, treated vs untreated, average of SKOV-3, A549 and Panc-1. On the procedure:
as §1, §2, §3, §4, §5, §6

Assay [8] has as its system Interleukin 20 receptor alpha (IL20RA). The assay can be described thus: Expression profiling (Agilent microarray) in tumor cell lines: IL20RA. The class given is cell-based, human. The following applies: 24 hours, treated vs untreated, average of SKOV-3, A549 and Panc-1. On the procedure:
as §1, §2, §3, §4, §5, §6

Assay [9] has as its system Myelin basic protein (variant 7) (MBP). Put plainly: Expression profiling (Agilent microarray) in tumor cell lines: MBP. The class given is cell-based, human. The conditions noted are these: 24 hours, treated vs untreated, average of SKOV-3, A549 and Panc-1. The procedure: as §1, §2, §3, §4, §5, §6

On to `COC[C@@H]1C[C@@H]2[C@H](CC[C@]3(C)C(O)CC[C@@H]23)c2ccc(O)cc21` (stereo partly drawn) [compound 4, (6R,8R,9S,13S,14S)-6-(methoxymethyl)-13-methyl-7,8,9,11,12,13,14,15,16,17-decahydro-6H-cyclopenta[a]phenanthrene-3,17-diol], for which the “Potency in OPC differentiation (in words)” value in assay [1] (10 μM) is on record as “potent”. Moreover, the “Gene expression DNER” value was 5.16 log2 in assay [2] (50 μM) and 5.51 log2 in assay [2] (100 μM). Further, the “Gene expression IL28A” value in the assay on Interleukin 28A (IL28A) (50 μM) is given as 1.35 log2; with Interleukin 28A (IL28A) (100 μM), 1.96 log2. Also, the “Gene expression OLIG2” value in assay [3] (50 μM) is given as 4.98 log2; in [3] (100 μM), 4.59 log2. For the same compound, the “Gene expression IL23R” value amounted to 3.62 log2 in assay [4] (50 μM) and 4.86 log2 in assay [4] (100 μM). Further, the “Gene expression TMEM108” value in assay [5] (50 μM) is 3.59 log2; in assay [5] (100 μM) it was 3.62 log2. Moreover, the “Gene expression MOG” value in assay [6] (50 μM) is 3.99 log2; in [6] (100 μM), 4.28 log2. The “Effect on genes in signaling pathways involved in proliferation and differentiation of OPCs” value in assay [7] was “up-regulate”. Besides, the results for the “Gene expression Connexin AF251047” value in the assay on Connexin (AF251047) (50 μM) and in the assay on Connexin (AF251047) (100 μM) were 3.38 log2 and 3.56 log2, respectively. Besides, the results for the “Gene expression IL20RA” value in assay [8] (50 μM) and in [8] (100 μM) were 3.17 log2 and 3.38 log2, respectively. For the same compound, the “Gene expression MBP” value worked out at 4.72 log2 in assay [9] (50 μM) and 4.80 log2 in assay [9] (100 μM).
On to `COCCCCCC[C@@H]1C[C@@H]2[C@H](CC[C@]3(C)C(O)CC[C@@H]23)c2ccc(O)cc21` (stereo partly drawn) [compound 21, (6R,8R,9S,13S,14S)-6-(6-methoxyhexyl)-13-methyl-7,8,9,11,12,13,14,15,16,17-decahydro-6H-cyclopenta[a]phenanthrene-3,17-diol], for which, in assay [1] (10 μM, 4 days (96 hours), mouse OPC culture, PLP-EGFP signal), the “Activity to differentiate oligodendrocytes compared to DMSO” value is recorded as 3 fold. Also, in assay [1] (10 μM, 4 days (96 hours), mouse OPC culture, CNTF 10 μM), the “Activity to differentiate oligodendrocytes compared to positive control CNTF” value was 1.5 fold. The “Activity to differentiate oligodendrocytes compared to positive control MEKi” value in [1] (10 μM, 4 days (96 hours), mouse OPC culture, MEKi 1 μM) worked out at 2.0 fold. For the same compound, the “Potency in OPC differentiation (in words)” value in assay [1] (10 μM) is listed as “potent”. Also, the “Extent of process formation” value in assay [1] (compared to DMSO and all other compounds tested, including CNTF, FIGS. 2 and 4) is “greatest”. Further, the “Gene expression DNER” value in [2] (10 μM) is 6.20 log2; in assay [2] (50 μM), 4.79 log2. Further, the “Gene expression IL28A” value in the assay on Interleukin 28A (IL28A) (10 μM) worked out at 1.44 log2; in the assay with Interleukin 28A (IL28A) (50 μM), 2.59 log2. The “Gene expression OLIG2” value in assay [3] (10 μM) turned out to be 6.16 log2; in assay [3] (50 μM) it was 5.32 log2. Further, the figures for the “Gene expression IL23R” value in [4] (10 μM) and in [4] (50 μM) were 5.31 log2 and 5.46 log2, respectively. The figures for the “Gene expression TMEM108” value in [5] (10 μM) and in assay [5] (50 μM) were 3.92 log2 and 3.96 log2, respectively. For the same compound, the entries for the “Gene expression MOG” value in [6] (10 μM) and in assay [6] (50 μM) were 5.23 log2 and 5.55 log2, respectively. Besides, the “Effect on genes in signaling pathways involved in proliferation and differentiation of OPCs” value in assay [7] was “up-regulate”. Besides, the results for the “Gene expression Connexin AF251047” value with Connexin (AF251047) (10 μM) and with Connexin (AF251047) (50 μM) were 2.74 log2 and 3.08 log2, respectively. For the same compound, the entries for the “Gene expression IL20RA” value in assay [8] (10 μM) and in assay [8] (50 μM) were 4.42 log2 and 4.39 log2, respectively. In addition, the results for the “Gene expression MBP” value in assay [9] (10 μM) and in [9] (50 μM) were 6.07 log2 and 5.04 log2, respectively.
